Source: PubChem BioAssay AID1963441 (Molecular Pharmacology Branch, DTP, NCI, 2024)

Tested on: NCI-H1876 complex spheroid growth, % test/control
Assay: Anticancer human tumor NCI-H1876 cell line growth inhibition [Asc];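 also: compound exposure lasted 7 days starting three days after seeding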;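 as to viability, T/C: 100% = DMSO vehicle control wells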
Conditions: for viability, T/C: stronger effect = lower value
Outline: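 Stromal components (HUVEC and hMSC) are co-assembled with the cancer cells into multicellular spheroids. Drugs are then added singly or paired, at concentrations falling by half-log increments from a clinically achievable maximum, capped at 10 microM without known Cmax.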

[1] = curve of first compound, second compound 0.0316 µM
[2] = curve of first compound, second compound 0.1 µM
[3] = curve of first compound, second compound 0.316 µM
[4] = curve of first compound, second compound 1 µM
[5] = curve of first compound, second compound 3.16 µM
[6] = curve of first compound, second compound 10 µM
[7] = second compound 0.0316 µM, first compound 0.00316 µM
[8] = second compound 0.0316 µM, first compound 0.01 µM
[9] = second compound 0.0316 µM, first compound 0.0316 µM
[10] = second compound 0.0316 µM, first compound 0.1 µM
[11] = second compound 0.1 µM, first compound 0.00316 µM
[12] = second compound 0.1 µM, first compound 0.01 µM
[13] = second compound 0.1 µM, first compound 0.0316 µM
[14] = second compound 0.1 µM, first compound 0.1 µM
[15] = second compound 0.316 µM, first compound 0.00316 µM
[16] = second compound 0.316 µM, first compound 0.01 µM
[17] = second compound 0.316 µM, first compound 0.0316 µM
[18] = second compound 0.316 µM, first compound 0.1 µM
[19] = second compound 1 µM, first compound 0.00316 µM
[20] = second compound 1 µM, first compound 0.01 µM
[21] = second compound 1 µM, first compound 0.0316 µM
[22] = second compound 1 µM, first compound 0.1 µM

For `CCN1C(C(=O)NC23CCC(C(=O)O)(CC2)CC3)C(c2cccc(Cl)c2F)C2(C(=O)Nc3cc(Cl)ccc32)C12CCCCC2` (stereo not drawn) + Cc1c(S(C)(=O)=O)c(-c2cc(F)cc(N3CCN(c4ccc(NS(=O)(=O)c5ccc(NC(CCN6CCC(C(=O)OCCCP(=O)(O)O)CC6)CSc6ccccc6)c(S(=O)(=O)C(F)(F)F)c5)cc4)CC3)c2)c(-c2ccc(Cl)cc2)n1C(C)C, the IC50 [1] was over 3000 nM, the IC50 [2] was over 3000 nM and the IC50 [3] was over 3000 nM. For the same compound, the IC50 [4] was over 3000 nM, the IC50 [5] was over 3000 nM and the IC50 [6] was 2740 nM. For the same compound, the viability, T/C (second compound 0.0316 µM, first compound 0.00949 µM) was 97.3%, the viability, T/C (second compound 0.0316 µM, first compound 0.03 µM) was 85.5% and the viability, T/C (second compound 0.0316 µM, first compound 0.0949 µM) was 98.5%. It also gave a viability, T/C (second compound 0.0316 µM, first compound 0.3 µM) of 107%, a viability, T/C (second compound 0.0316 µM, first compound 0.949 µM) of 125% and a viability, T/C (second compound 0.0316 µM, first compound 3 µM) of 106%. It also gave a viability, T/C (second compound 0.1 µM, first compound 0.00949 µM) of 95%, a viability, T/C (second compound 0.1 µM, first compound 0.03 µM) of 105% and a viability, T/C (second compound 0.1 µM, first compound 0.0949 µM) of 99.5%. For the same compound, the viability, T/C (second compound 0.1 µM, first compound 0.3 µM) was 105%, the viability, T/C (second compound 0.1 µM, first compound 0.949 µM) was 124% and the viability, T/C (second compound 0.1 µM, first compound 3 µM) was 98.2%. For the same compound, the viability, T/C (second compound 0.316 µM, first compound 0.00949 µM) was 99%, the viability, T/C (second compound 0.316 µM, first compound 0.03 µM) was 96.4% and the viability, T/C (second compound 0.316 µM, first compound 0.0949 µM) was 107%. The viability, T/C (second compound 0.316 µM, first compound 0.3 µM) was 96.1%, the viability, T/C (second compound 0.316 µM, first compound 0.949 µM) was 116% and the viability, T/C (second compound 0.316 µM, first compound 3 µM) was 81.2%. It also gave a viability, T/C (second compound 1 µM, first compound 0.00949 µM) of 95.2%, a viability, T/C (second compound 1 µM, first compound 0.03 µM) of 91.7% and a viability, T/C (second compound 1 µM, first compound 0.0949 µM) of 104%. It also gave a viability, T/C (second compound 1 µM, first compound 0.3 µM) of 108%, a viability, T/C (second compound 1 µM, first compound 0.949 µM) of 121% and a viability, T/C (second compound 1 µM, first compound 3 µM) of 60.4%. For the same compound, the viability, T/C (second compound 3.16 µM, first compound 0.00949 µM) was 104%, the viability, T/C (second compound 3.16 µM, first compound 0.03 µM) was 107% and the viability, T/C (second compound 3.16 µM, first compound 0.0949 µM) was 96.6%. The viability, T/C (second compound 3.16 µM, first compound 0.3 µM) was 107%, the viability, T/C (second compound 3.16 µM, first compound 0.949 µM) was 110% and the viability, T/C (second compound 3.16 µM, first compound 3 µM) was 50.7%. The viability, T/C (second compound 10 µM, first compound 0.00949 µM) was 103%, the viability, T/C (second compound 10 µM, first compound 0.03 µM) was 99.7% and the viability, T/C (second compound 10 µM, first compound 0.0949 µM) was 94%. For the same compound, the viability, T/C (second compound 10 µM, first compound 0.3 µM) was 107%, the viability, T/C (second compound 10 µM, first compound 0.949 µM) was 115% and the viability, T/C (second compound 10 µM, first compound 3 µM) was 45.3%.
`CNC(C)C(=O)NC1CN(S(=O)(=O)c2cccc(S(=O)(=O)N3CCC4CCC(C(=O)NC(c5ccccc5)c5ccccc5)N4C(=O)C(NC(=O)C(C)NC)C3)c2)CCC2CCC(C(=O)NC(c3ccccc3)c3ccccc3)N2C1=O` (stereo not drawn) was tested, and the viability, T/C (compound 0.01 µM) was 103% [middle of 9 runs], the viability, T/C (compound 0.0316 µM) was 105% [middle of 9 runs] and the viability, T/C (compound 0.1 µM) was 103% [middle of 9 runs]. For the same compound, the viability, T/C (compound 0.316 µM) was 101% [middle of 9 runs], the viability, T/C (compound 1 µM) was 93.7% [middle of 9 runs] and the IC50 (compound alone, run of 11/15/2022) was over 1000 nM. For the same compound, the IC50 (curve of compound) was over 1000 nM.
`CCN1CCN(Cc2ccc(Nc3ncc(F)c(-c4cc(F)c5nc(C)n(C(C)C)c5c4)n3)nc2)CC1` + CNC(C)C(=O)NC1CN(S(=O)(=O)c2cccc(S(=O)(=O)N3CCC4CCC(C(=O)NC(c5ccccc5)c5ccccc5)N4C(=O)C(NC(=O)C(C)NC)C3)c2)CCC2CCC(C(=O)NC(c3ccccc3)c3ccccc3)N2C1=O gave an IC50 (curve of first compound, second compound 0.00316 µM) of over 1000 nM, an IC50 (curve of first compound, second compound 0.01 µM) of over 1000 nM and an IC50 [1] of over 1000 nM. For the same compound, the IC50 [2] was over 1000 nM, the IC50 [3] was over 1000 nM and the IC50 [4] was over 1000 nM. It also gave a viability, T/C (second compound 0.00316 µM, first compound 0.00316 µM) of 104%, a viability, T/C (second compound 0.00316 µM, first compound 0.01 µM) of 89.2% and a viability, T/C (second compound 0.00316 µM, first compound 0.0316 µM) of 103%. It also gave a viability, T/C (second compound 0.00316 µM, first compound 0.1 µM) of 93.9%, a viability, T/C (second compound 0.00316 µM, first compound 0.316 µM) of 125% and a viability, T/C (second compound 0.00316 µM, first compound 1 µM) of 128%. It also gave a viability, T/C (second compound 0.01 µM, first compound 0.00316 µM) of 105%, a viability, T/C (second compound 0.01 µM, first compound 0.01 µM) of 104% and a viability, T/C (second compound 0.01 µM, first compound 0.0316 µM) of 102%. For the same compound, the viability, T/C (second compound 0.01 µM, first compound 0.1 µM) was 99.8%, the viability, T/C (second compound 0.01 µM, first compound 0.316 µM) was 126% and the viability, T/C (second compound 0.01 µM, first compound 1 µM) was 132%. It also gave a viability, T/C [7] of 105%, a viability, T/C [8] of 93.1% and a viability, T/C [9] of 102%. The viability, T/C [10] was 108%, the viability, T/C (second compound 0.0316 µM, first compound 0.316 µM) was 129% and the viability, T/C (second compound 0.0316 µM, first compound 1 µM) was 136%. It also gave a viability, T/C [11] of 100%, a viability, T/C [12] of 102% and a viability, T/C [13] of 104%. It also gave a viability, T/C [14] of 109%, a viability, T/C (second compound 0.1 µM, first compound 0.316 µM) of 118% and a viability, T/C (second compound 0.1 µM, first compound 1 µM) of 131%. For the same compound, the viability, T/C [15] was 110%, the viability, T/C [16] was 93.1% and the viability, T/C [17] was 101%. For the same compound, the viability, T/C [18] was 104%, the viability, T/C (second compound 0.316 µM, first compound 0.316 µM) was 126% and the viability, T/C (second compound 0.316 µM, first compound 1 µM) was 140%. It also gave a viability, T/C [19] of 102%, a viability, T/C [20] of 105% and a viability, T/C [21] of 109%. The viability, T/C [22] was 107%, the viability, T/C (second compound 1 µM, first compound 0.316 µM) was 129% and the viability, T/C (second compound 1 µM, first compound 1 µM) was 122%.
`Cn1ncnc1[C@H]1c2n[nH]c(=O)c3cc(F)cc(c23)N[C@@H]1c1ccc(F)cc1` + Cc1c(S(C)(=O)=O)c(-c2cc(F)cc(N3CCN(c4ccc(NS(=O)(=O)c5ccc(NC(CCN6CCC(C(=O)OCCCP(=O)(O)O)CC6)CSc6ccccc6)c(S(=O)(=O)C(F)(F)F)c5)cc4)CC3)c2)c(-c2ccc(Cl)cc2)n1C(C)C gave an IC50 [1] of over 100 nM, an IC50 [2] of over 100 nM and an IC50 [3] of over 100 nM. It also gave an IC50 [4] of over 100 nM, an IC50 [5] of over 100 nM and an IC50 [6] of over 100 nM. The viability, T/C (second compound 0.0316 µM, first compound 0.000316 µM) was 89.8%, the viability, T/C (second compound 0.0316 µM, first compound 0.001 µM) was 82.8% and the viability, T/C [7] was 101%. The viability, T/C [8] was 94.2%, the viability, T/C [9] was 106% and the viability, T/C [10] was 81.6%. The viability, T/C (second compound 0.1 µM, first compound 0.000316 µM) was 100%, the viability, T/C (second compound 0.1 µM, first compound 0.001 µM) was 92.9% and the viability, T/C [11] was 98.4%. For the same compound, the viability, T/C [12] was 111%, the viability, T/C [13] was 96.7% and the viability, T/C [14] was 86.5%. The viability, T/C (second compound 0.316 µM, first compound 0.000316 µM) was 92%, the viability, T/C (second compound 0.316 µM, first compound 0.001 µM) was 101% and the viability, T/C [15] was 95.5%. The viability, T/C [16] was 110%, the viability, T/C [17] was 94.7% and the viability, T/C [18] was 74.3%. It also gave a viability, T/C (second compound 1 µM, first compound 0.000316 µM) of 110%, a viability, T/C (second compound 1 µM, first compound 0.001 µM) of 89.8% and a viability, T/C [19] of 94.7%. For the same compound, the viability, T/C [20] was 94.7%, the viability, T/C [21] was 91.7% and the viability, T/C [22] was 64%. It also gave a viability, T/C (second compound 3.16 µM, first compound 0.000316 µM) of 94.2%, a viability, T/C (second compound 3.16 µM, first compound 0.001 µM) of 95.7% and a viability, T/C (second compound 3.16 µM, first compound 0.00316 µM) of 94.1%. For the same compound, the viability, T/C (second compound 3.16 µM, first compound 0.01 µM) was 92.6%, the viability, T/C (second compound 3.16 µM, first compound 0.0316 µM) was 81% and the viability, T/C (second compound 3.16 µM, first compound 0.1 µM) was 53.7%. For the same compound, the viability, T/C (second compound 10 µM, first compound 0.000316 µM) was 100%, the viability, T/C (second compound 10 µM, first compound 0.001 µM) was 106% and the viability, T/C (second compound 10 µM, first compound 0.00316 µM) was 84.2%. For the same compound, the viability, T/C (second compound 10 µM, first compound 0.01 µM) was 95.9%, the viability, T/C (second compound 10 µM, first compound 0.0316 µM) was 80.4% and the viability, T/C (second compound 10 µM, first compound 0.1 µM) was 55.8%.
